# In BindingDB's records for doi:10.1016/j.bmcl.2005.12.051 (Procter & Gamble Pharmaceuticals, 2006):
# Biological target: T1, Tyrosine-protein phosphatase non-receptor type 1 [1-298] (Homo sapiens, UniProt P18031)
# T1 construct: 1-298
# T1 sequence (P18031 whole entry): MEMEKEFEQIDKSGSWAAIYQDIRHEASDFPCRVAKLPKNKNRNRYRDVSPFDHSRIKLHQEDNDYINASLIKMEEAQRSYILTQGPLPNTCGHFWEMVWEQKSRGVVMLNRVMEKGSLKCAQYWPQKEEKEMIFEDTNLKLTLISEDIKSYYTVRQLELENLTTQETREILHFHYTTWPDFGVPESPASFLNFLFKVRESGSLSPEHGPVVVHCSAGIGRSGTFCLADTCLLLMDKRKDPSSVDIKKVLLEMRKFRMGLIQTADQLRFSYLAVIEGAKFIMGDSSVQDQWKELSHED
# Assay: Phosphatase Inhibition Assay
# Conditions: for IC50: pH 7, 22 °C
# Experimental: The activity of PTP1B enzyme was assayed with DiFMUP as substrate. Hydrolysis of substrate was monitored on a Victor V plate reader (Wallac). Kinetic measurements were measured using 3-5 concentrations of inhibitor around the IC50 over a range of substrate concentrations (3-500 uM). Data were used to determine Km/Ki/competitive inhibition using GraphPad Prism software.
Structure (SMILES),Ki [µM],IC50 [µM]
Cn1nc(-c2ccccc2)cc1NS(=O)(=O)O [N-(1-methyl-3-phenyl-1H-pyrazol-5-yl)sulfamic acid],> 500,–
"CNC(=O)[C@@H]1Cc2ccc(NS(=O)(=O)O)cc2CN1C(=O)C=Cc1coc2ccccc12 [ammonium N-[(3S)-2-[(2E)-3-(1-benzofuran-3-yl)prop-2-enoyl]-3-(methylcarbamoyl)-1,2,3,4-tetrahydroisoquinolin-7-yl]sulfamate]",–,24.9
"CNC(=O)[C@@H]1Cc2ccc(NS(=O)(=O)O)cc2CN1C(=O)N[C@@H](Cc1ccccc1)C(=O)OC(C)(C)C [ammonium N-[(3S)-2-{[(2S)-1-(tert-butoxy)-1-oxo-3-phenylpropan-2-yl]carbamoyl}-3-(methylcarbamoyl)-1,2,3,4-tetrahydroisoquinolin-7-yl]sulfamate]",–,> 500
